Experimental data as given in patent publication US7939526B2, “Sulfone substituted imidazo ring ethers” (3M Innovative Properties Company, priority 2003, dated 2011).

| Compound | melting point [°C] |
| --- | --- |
| Cc1nc2c(N)nc3ccccc3c2n1CCOCCS(C)(=O)=O [Example 1, 2-Methyl-1-{2-[2-(methylsulfonyl)ethoxy]ethyl}-1H-imidazo[4,5-c]quinolin-4-amine] | 214 to 217 |
| CCCCc1nc2c(N)nc3ccccc3c2n1CCOCCS(C)(=O)=O [Example 2, 2-Butyl-1-{2-[2-(methylsulfonyl)ethoxy]ethyl}-1H-imidazo[4,5-c]quinolin-4-amine] | 168 to 170 |
| CS(=O)(=O)CCOCCn1cnc2c(N)nc3ccccc3c21 [Example 3, 1-{2-[2-(Methylsulfonyl)ethoxy]ethyl}-1H-imidazo[4,5-c]quinolin-4-amine] | 145 to 148 |
| CCCc1nc2c(N)nc3ccccc3c2n1CCOCCS(C)(=O)=O [Example 4, 1-{2-[2-(Methylsulfonyl)ethoxy]ethyl}-2-propyl-1H-imidazo[4,5-c]quinolin-4-amine] | 150 to 152 |
| CCc1nc2c(N)nc3ccccc3c2n1CCOCCS(C)(=O)=O [Example 5, 2-Ethyl-1-{2-[2-(methylsulfonyl)ethoxy]ethyl}-1H-imidazo[4,5-c]quinolin-4-amine] | 160 to 163 |
| CCOCc1nc2c(N)nc3ccccc3c2n1CCOCCS(C)(=O)=O [Example 6, 2-(Ethoxymethyl)-1-{2-[2-(methylsulfonyl)ethoxy]ethyl}-1H-imidazo[4,5-c]quinolin-4-amine] | 158 to 160 |
| COCCc1nc2c(N)nc3ccccc3c2n1CCOCCS(C)(=O)=O [Example 7, 2-(2-Methoxyethyl)-1-{2-[2-(methylsulfonyl)ethoxy]ethyl}-1H-imidazo[4,5-c]quinolin-4-amine] | 142 to 144 |
| CCOCc1nc2c(N)nc3ccccc3c2n1CC(C)(C)OCCS(=O)(=O)c1ccccc1 [Example 8, 2-Ethoxymethyl-1-{2-[2-(phenylsulfonyl)ethoxy]-2-methylpropyl}-1H-imidazo[4,5-c]quinolin-4-amine] | 187 to 189 |
| CCOCc1nc2c(N)nc3ccccc3c2n1CC(C)(C)OCCS(C)(=O)=O [Example 9, 2-Ethoxymethyl-1-{2-[2-(methylsulfonyl)ethoxy]-2-methylpropyl}-1H-imidazo[4,5-c]quinolin-4-amine] | 183 to 185 |
| Cc1nc2c(N)nc3c(c2n1CCOCCS(C)(=O)=O)CCCC3 [Example 10, 1-{2-[2-(Methylsulfonyl)ethoxy]ethyl}-2-methyl-6,7,8,9-tetrahydro-1H-imidazo[4,5-c]quinolin-4-amine] | 173 to 175 |
| CCCc1nc2c(N)nc3c(c2n1CCOCCS(C)(=O)=O)CCCC3 [Example 11, 1-{2-[2-(Methylsulfonyl)ethoxy]ethyl}-2-propyl-6,7,8,9-tetrahydro-1H-imidazo[4,5-c]quinolin-4-amine] | 153 to 155 |
| CCc1nc2c(N)nc3c(c2n1CCOCCS(C)(=O)=O)CCCC3 [Example 12, 2-Ethyl-1-{2-[2-(methylsulfonyl)ethoxy]ethyl}-6,7,8,9-tetrahydro-1H-imidazo[4,5-c]quinolin-4-amine] | 146 to 148 |
| CCCc1nc2c(N)nc3ccccc3c2n1CCOCCCS(=O)(=O)c1ccccc1 [Example 13, 1-{2-[3-(Phenylsulfonyl)propoxy]ethyl}-2-propyl-1H-imidazo[4,5-c]quinolin-4-amine] | 160 to 161 |
| CCCc1nc2c(N)nc3ccccc3c2n1CCOCCCS(=O)(=O)C(C)C [Example 14, 1-(2-{3-[(1-Methylethyl)sulfonyl]propoxy}ethyl)-2-propyl-1H-imidazo[4,5-c]quinolin-4-amine] | 176 to 177 |
| CCCc1nc2c(N)nc3ccccc3c2n1CCOCCCS(=O)(=O)c1ccccc1C [Example 15, 1-(2-{3-[(2-Methylphenyl)sulfonyl]propoxy}ethyl)-2-propyl-1H-imidazo[4,5-c]quinolin-4-amine] | 159 to 160 |
| CCCc1nc2c(N)nc3ccccc3c2n1CCOCCCS(=O)(=O)c1ccccn1 [Example 16, 2-Propyl-1-(2-{3-[(pyridin-2-yl)sulfonyl]propoxy}ethyl)-1H-imidazo[4,5-c]quinolin-4-amine] | 150 to 151 |
| CCCc1nc2c(N)nc3ccccc3c2n1CCOCCCSC [Example 17, 1-{2-[3-(Methylthio)propoxy]ethyl}-2-propyl-1H-imidazo[4,5-c]quinolin-4-amine] | 99 to 101 |
| CCCc1nc2c(N)nc3ccccc3c2n1CCOCCC[S+](C)[O-] (centres unmarked) [Example 18] | 148 to 151 |
| CCCc1nc2c(N)nc3ccccc3c2n1CCOCCCS(C)(=O)=O [Example 19, 1-{2-[3-(Methylsulfonyl)propoxy]ethyl}-2-propyl-1H-imidazo[4,5-c]quinolin-4-amine] | 149 to 151 |

| Compound | melting point [°C] |
| --- | --- |
| CCCCCCCCCCS(=O)(=O)CCCOCCn1c(CCC)nc2c(N)nc3ccccc3c21 [Example 20, 1-{2-[3-(Decane-1-sulfonyl)propoxy]ethyl}-2-propyl-1H-imidazo[4,5-c]quinolin-4-amine] | 84 to 86 |
| Cc1nc2c(N)nc3ccccc3c2n1CC(C)(C)OCCS(C)(=O)=O [Example 21, 2-Methyl-1-{2-methyl-2-[2-(methylsulfonyl)ethoxy]propyl}-1H-imidazo[4,5-c]quinolin-4-amine] | 253 to 255 |
| CCCc1nc2c(N)nc3ccccc3c2n1CC(C)(C)OCCS(C)(=O)=O [Example 22, 1-{2-Methyl-2-[2-(methylsulfonyl)ethoxy]propyl}-2-propyl-1H-imidazo[4,5-c]quinolin-4-amine] | 203 to 206 |
| CCOCc1nc2c(N)nc3ccccc3c2n1CC1(OCCS(C)(=O)=O)CCCC1 [Example 23, 2-(Ethoxymethyl)-1-({1-[2-(methylsulfonyl)ethoxy]cyclopentyl}methyl)-1H-imidazo[4,5-c]quinolin-4-amine] | 163 to 165 |
| CCOCc1nc2c(N)nc3ccccc3c2n1CC1(OCCS(C)(=O)=O)CCCCC1 [Example 24, 2-(Ethoxymethyl)-1-({1-[2-(methylsulfonyl)ethoxy]cyclohexyl}methyl)-1H-imidazo[4,5-c]quinolin-4-amine] | 159 to 161 |
| CCCCCCc1nc2c(N)nc3ccccc3c2n1CCOCCS(C)(=O)=O [Example 25, 2-Hexyl-1-{2-[2-(methylsulfonyl)ethoxy]ethyl}-1H-imidazo[4,5-c]quinolin-4-amine] | 158 to 160 |
| CCOCc1nc2c(N)nc3ccccc3c2n1CC1(OCCS(C)(=O)=O)CCC1 [Example 26, 2-(Ethoxymethyl)-1-({1-[2-(methylsulfonyl)ethoxy]cyclobutyl}methyl)-1H-imidazo[4,5-c]quinolin-4-amine] | 221 to 223 |
| CCOCc1nc2c(N)nc3c(c2n1CC1(OCCS(C)(=O)=O)CCC1)CCCC3 [Example 27, 2-(Ethoxymethyl)-1-({1-[2-(methylsulfonyl)ethoxy]cyclobutyl}methyl)-6,7,8,9-tetrahydro-1H-imidazo[4,5-c]quinolin-4-amine] | 186 to 188 |
| CCOCc1nc2c(N)nc3c(c2n1CC(C)(C)OCCS(C)(=O)=O)CCCC3 [Example 28, 2-(Ethoxymethyl)-1-{2-methyl-2-[2-(methylsulfonyl)ethoxy]propyl}-6,7,8,9-tetrahydro-1H-imidazo[4,5-c]quinolin-4-amine] | 150 to 153 |
| CC(C)(Cn1cnc2c(N)nc3ccccc3c21)OCCS(C)(=O)=O [Example 29, 1-{2-Methyl-2-[2-(methylsulfonyl)ethoxy]propyl}-1H-imidazo[4,5-c]quinolin-4-amine] | 261 to 264 |
| Cc1nc2c(N)nc3c(c2n1CC(C)(C)OCCS(C)(=O)=O)CCCC3 [Example 30, 2-Methyl-1-{2-methyl-2-[2-(methylsulfonyl)ethoxy]propyl}-6,7,8,9-tetrahydro-1H-imidazo[4,5-c]quinolin-4-amine] | 226 to 229 |
| CC(C)(Cn1cnc2c(N)nc3c(c21)CCCC3)OCCS(C)(=O)=O [Example 31, 1-{2-Methyl-2-[2-(methylsulfonyl)ethoxy]propyl}-6,7,8,9-tetrahydro-1H-imidazo[4,5-c]quinolin-4-amine] | 219 to 223 |
| CCCCc1nc2c(N)nc3ccccc3c2n1CC(C)(C)OCCS(C)(=O)=O [Example 32, 2-Butyl-1-{2-methyl-2-[2-(methylsulfonyl)ethoxy]propyl}-1H-imidazo[4,5-c]quinolin-4-amine] | 196 to 198 |
| CCCCc1nc2c(N)nc3c(c2n1CC(C)(C)OCCS(C)(=O)=O)CCCC3 [Example 33, 2-Butyl-1-{2-methyl-2-[2-(methylsulfonyl)ethoxy]propyl}-6,7,8,9-tetrahydro-1H-imidazo[4,5-c]quinolin-4-amine] | 146 to 148 |
| CCOCc1nc2c(N)nc3ccccc3c2n1CC1(OCCS(C)(=O)=O)CC1 [Example 34, 2-(Ethoxymethyl)-1-({1-[2-(methylsulfonyl)ethoxy]cyclopropyl}methyl)-1H-imidazo[4,5-c]quinolin-4-amine] | 169 to 171 |
| CCCc1nc2c(N)nc3c(c2n1CC(C)(C)OCCS(C)(=O)=O)CCCC3 [Example 35, 1-{2-Methyl-2-[2-(methylsulfonyl)ethoxy]propyl}-2-propyl-6,7,8,9-tetrahydro-1H-imidazo[4,5-c]quinolin-4-amine] | 188 to 190 |
| CCc1nc2c(N)nc3ccccc3c2n1CC(C)(C)OCCS(C)(=O)=O [Example 36, 2-Ethyl-1-{2-methyl-2-[2-(methylsulfonyl)ethoxy]propyl}-1H-imidazo[4,5-c]quinolin-4-amine] | 206 to 209 |
| CCc1nc2c(N)nc3c(c2n1CC(C)(C)OCCS(C)(=O)=O)CCCC3 [Example 37, 2-Ethyl-1-{2-methyl-2-[2-(methylsulfonyl)ethoxy]propyl}-6,7,8,9-tetrahydro-1H-imidazo[4,5-c]quinolin-4-amine] | 225 to 227 |
| COCc1nc2c(N)nc3ccccc3c2n1CC(C)(C)OCCS(C)(=O)=O [Example 38, 2-(Methoxymethyl)-1-{2-methyl-2-[2-(methylsulfonyl)ethoxy]propyl}-1H-imidazo[4,5-c]quinolin-4-amine] | 186 to 189 |
